Measured values from patent US10052320B2, “Substituted quinoxalines as FGFR kinase inhibitors” (ASTEX THERAPEUTICS LIMITED, priority 2011, dated 2018).
Where “and” joins values, the source holds several entries; their conditions need not be identical. Equal values may be shown once.

Experiments:
[1] = biological target: Ba/F3-KDR-transfected cells (Homo sapiens, UniProt P35968); experiment: Ba/F3-KDR (minus IL3) cellular proliferation assay, Alamar Blue; type: cell-based; conditions: minus IL3
How it was run: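 Readout is resazurin (Alamar Blue) fluorescence, ex 540/em 590 nm, after 4 h, following 24 h compound exposure of KDR-transfected Ba/F3 cells at 37° C, 5% CO2 in 10% FBS RPMI. Plus-IL3 arm adds 10 ng/ml murine IL3; otherwise same conditions.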

[2] = biological target: T1, Ba/F3-Flt3-transfected cells (Homo sapiens, UniProt P36888, cells depend on it, form not given); experiment: Ba/F3-Flt3 (minus IL3) cellular proliferation assay, Alamar Blue; type: cell-based; conditions: minus IL3
T1 sequence (P36888 1-993): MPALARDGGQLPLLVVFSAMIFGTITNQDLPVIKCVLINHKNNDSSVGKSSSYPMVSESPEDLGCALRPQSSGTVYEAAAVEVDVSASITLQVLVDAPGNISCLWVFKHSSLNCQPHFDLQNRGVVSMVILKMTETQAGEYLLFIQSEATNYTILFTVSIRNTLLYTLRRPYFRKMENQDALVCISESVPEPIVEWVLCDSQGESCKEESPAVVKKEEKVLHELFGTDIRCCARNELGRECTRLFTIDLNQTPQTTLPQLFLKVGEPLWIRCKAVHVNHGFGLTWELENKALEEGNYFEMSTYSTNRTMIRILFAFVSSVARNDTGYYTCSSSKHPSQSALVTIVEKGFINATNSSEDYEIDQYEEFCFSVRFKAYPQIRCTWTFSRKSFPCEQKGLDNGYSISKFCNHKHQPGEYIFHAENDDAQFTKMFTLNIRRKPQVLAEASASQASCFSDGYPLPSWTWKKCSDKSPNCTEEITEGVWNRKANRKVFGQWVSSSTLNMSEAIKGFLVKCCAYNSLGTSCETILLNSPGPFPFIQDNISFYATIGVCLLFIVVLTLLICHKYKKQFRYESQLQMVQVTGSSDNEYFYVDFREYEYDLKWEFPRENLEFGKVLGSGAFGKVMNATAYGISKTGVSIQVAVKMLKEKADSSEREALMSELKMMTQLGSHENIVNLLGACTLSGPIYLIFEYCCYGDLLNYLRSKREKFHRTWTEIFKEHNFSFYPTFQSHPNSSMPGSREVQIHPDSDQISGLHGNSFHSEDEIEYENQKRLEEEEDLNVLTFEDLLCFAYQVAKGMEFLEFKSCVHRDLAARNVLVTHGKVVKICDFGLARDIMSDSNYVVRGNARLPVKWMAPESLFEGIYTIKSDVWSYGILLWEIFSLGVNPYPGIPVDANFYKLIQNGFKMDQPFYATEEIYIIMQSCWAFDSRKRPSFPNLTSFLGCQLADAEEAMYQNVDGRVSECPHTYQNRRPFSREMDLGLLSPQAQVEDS

[3] = biological target: Ba/F3-FGFR3-transfected cells (Homo sapiens, UniProt P22607); experiment: Ba/F3-FGFR3 (minus IL3) cellular proliferation assay, Alamar Blue; type: cell-based; conditions: for BAF3-FGFR 3 (MIN IL3) 96 well pIC50: minus IL3, 96 well; for BAF3-FGFR 3 (MIN IL3) 384 well pIC50: minus IL3, 384 well
How it was run: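 Counterscreen adds 10 ng/ml murine IL3, otherwise matching the IL3-free run. In both, FGFR3-transfected Ba/F3 cells (20000 or 10000 per well) incubate with compound for 24 h at 37° C. and 5% CO2; viability is read as resazurin fluorescence (540/590 nm) after 4 h with Alamar Blue.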

Chain of Ba/F3-FGFR3-transfected cells (P22607 whole entry, change not shown): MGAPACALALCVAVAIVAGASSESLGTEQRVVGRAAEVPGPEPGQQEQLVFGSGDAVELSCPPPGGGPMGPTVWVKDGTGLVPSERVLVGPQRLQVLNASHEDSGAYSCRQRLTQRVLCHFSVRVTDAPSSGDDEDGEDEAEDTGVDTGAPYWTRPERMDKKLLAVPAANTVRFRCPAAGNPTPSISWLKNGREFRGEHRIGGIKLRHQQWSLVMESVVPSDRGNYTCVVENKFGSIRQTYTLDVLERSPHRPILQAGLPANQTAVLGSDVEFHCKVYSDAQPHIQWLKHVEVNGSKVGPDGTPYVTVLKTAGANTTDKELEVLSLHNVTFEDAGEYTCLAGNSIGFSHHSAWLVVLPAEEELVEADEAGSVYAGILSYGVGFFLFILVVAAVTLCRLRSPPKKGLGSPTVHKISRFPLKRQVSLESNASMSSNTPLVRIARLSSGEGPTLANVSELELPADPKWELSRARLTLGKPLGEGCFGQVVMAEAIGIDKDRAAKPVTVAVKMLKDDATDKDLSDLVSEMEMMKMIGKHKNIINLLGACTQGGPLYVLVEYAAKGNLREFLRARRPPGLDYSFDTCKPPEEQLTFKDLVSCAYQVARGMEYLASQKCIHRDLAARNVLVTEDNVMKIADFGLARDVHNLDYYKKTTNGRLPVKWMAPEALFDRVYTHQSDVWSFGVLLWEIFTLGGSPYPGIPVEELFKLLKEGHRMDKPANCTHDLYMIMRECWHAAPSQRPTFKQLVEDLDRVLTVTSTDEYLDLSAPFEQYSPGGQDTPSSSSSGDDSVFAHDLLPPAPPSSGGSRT
Chain of Ba/F3-KDR-transfected cells (P35968 whole entry, change not shown): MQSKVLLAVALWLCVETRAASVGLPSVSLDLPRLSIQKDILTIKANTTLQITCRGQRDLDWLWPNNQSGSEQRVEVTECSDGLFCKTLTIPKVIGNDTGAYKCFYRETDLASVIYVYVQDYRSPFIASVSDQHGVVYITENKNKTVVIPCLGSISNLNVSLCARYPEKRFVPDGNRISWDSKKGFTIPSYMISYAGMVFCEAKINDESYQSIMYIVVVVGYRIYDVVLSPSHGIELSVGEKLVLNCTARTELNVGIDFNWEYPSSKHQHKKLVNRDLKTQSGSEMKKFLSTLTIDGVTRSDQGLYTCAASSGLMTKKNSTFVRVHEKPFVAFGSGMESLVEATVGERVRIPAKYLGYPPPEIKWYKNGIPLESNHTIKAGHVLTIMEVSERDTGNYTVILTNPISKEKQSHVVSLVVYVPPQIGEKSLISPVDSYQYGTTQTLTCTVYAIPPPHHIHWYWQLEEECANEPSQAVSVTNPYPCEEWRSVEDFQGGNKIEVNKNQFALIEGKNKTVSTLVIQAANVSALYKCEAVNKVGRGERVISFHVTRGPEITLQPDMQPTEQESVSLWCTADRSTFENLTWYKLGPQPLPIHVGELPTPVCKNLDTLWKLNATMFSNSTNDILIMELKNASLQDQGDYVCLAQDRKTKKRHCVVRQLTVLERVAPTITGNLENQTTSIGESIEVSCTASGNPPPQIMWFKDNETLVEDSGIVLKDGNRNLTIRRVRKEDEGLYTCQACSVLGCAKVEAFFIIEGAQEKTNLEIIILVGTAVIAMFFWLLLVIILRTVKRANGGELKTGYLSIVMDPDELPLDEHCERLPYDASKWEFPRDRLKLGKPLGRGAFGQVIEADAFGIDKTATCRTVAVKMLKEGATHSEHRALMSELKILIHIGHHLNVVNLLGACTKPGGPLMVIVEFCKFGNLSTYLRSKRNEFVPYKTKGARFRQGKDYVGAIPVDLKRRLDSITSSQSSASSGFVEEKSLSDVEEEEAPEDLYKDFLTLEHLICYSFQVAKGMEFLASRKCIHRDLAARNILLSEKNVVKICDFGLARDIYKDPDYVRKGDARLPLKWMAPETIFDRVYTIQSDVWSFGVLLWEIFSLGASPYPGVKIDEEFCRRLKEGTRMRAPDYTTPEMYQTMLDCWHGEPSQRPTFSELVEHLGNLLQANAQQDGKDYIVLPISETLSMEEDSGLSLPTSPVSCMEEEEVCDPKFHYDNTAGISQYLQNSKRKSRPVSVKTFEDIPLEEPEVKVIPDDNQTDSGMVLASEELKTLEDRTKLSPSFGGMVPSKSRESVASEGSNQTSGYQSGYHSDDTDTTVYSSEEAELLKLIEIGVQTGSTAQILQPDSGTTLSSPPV

Structure (SMILES)	BAF3-KDR (MIN IL3) 96 well pIC50 [1]	BAF3-KDR (MIN IL3) 384 well pIC50 [1]	BAF3-FLT3 (MIN IL3) 96 well pIC50 [2]	BAF3-FLT3 (MIN IL3) 384 well pIC50 [2]	BAF3-FGFR 3 (MIN IL3) 96 well pIC50 [3]	BAF3-FGFR 3 (MIN IL3) 384 well pIC50 [3]	melting point
COc1cc(OC)cc(N(CC2CC2)c2ccc3ncc(-c4cn[nH]n4)nc3c2)c1 [Compound 69]	<5	<5	<5	<5	<5	<5	173 °C and 172 °C
COc1cc(OC)cc(N(CCCO)c2ccc3ncc(-c4ccnc(NC(=O)OC(C)(C)C)c4)nc3c2)c1 [Compound 128]	–	<5	–	<5	–	<5	213 °C
COc1cc(OC)cc(N(CC2CO2)c2ccc3ncc(-c4ccc(N)nc4)nc3c2)c1 (stereo not shown) [Compound 110]	–	5.45	–	5.04	–	6.81	169 °C
COc1cc(OC)cc(N(CCO)c2ccc3ncc(-c4ccc(OC)nc4)nc3c2)c1 [Compound 111]	–	<5	–	<5	–	~6.17	195 °C
COc1cc(OC)cc(N(CC2CC2)c2ccc3ncc(Nc4nncs4)nc3c2)c1 [Compound 102]	–	<5	~5	<5	<5	<5	260 °C
COc1cc(OC)cc(N(CC2CC2)c2ccc3ncc(-c4cccn4C)nc3c2)c1 [Compound 103]	–	<5	5.17	<5	<5	<5	141 °C
CNc1ccc(-c2cnc3ccc(N(CCCO)c4cc(OC)cc(OC)c4)cc3n2)cn1 [Compound 116]	–	5.19	–	<5	–	6.59	188 °C
COc1cc(OC)cc(N(CCCO)c2ccc3ncc(-c4ccc(N5CCNCC5)nc4)nc3c2)c1 [Compound 48]	–	5.39	–	5.44	–	6.87	184 °C
COc1cc(OC)cc(N(CCO)c2ccc3ncc(-c4ccccc4)nc3c2)c1 [Compound 120]	–	<5	–	<5	–	~6.09	124 °C
COc1cc(OC)cc(N(CC2CC2)c2ccc3ncc(-n4nccc4C)nc3c2)c1 [Compound 62]	–	<5	<5	<5	<5	<5	139 °C
COc1cc(OC)cc(N(CC2CC2)c2ccc3ncc(-n4cnc(C)c4)nc3c2)c1 [Compound 30]	5.11	5.07	5.06	<5	5.94	5.51	113 °C
COc1cc(OC)cc(N(CCO)c2ccc3ncc(-c4ccncc4)nc3c2)c1 [Compound 11]	–	5.1	–	<5	–	6.65	158 °C
COc1cc(OC)cc(N(CC2CC2)c2ccc3ncc(-n4ccc(C)n4)nc3c2)c1 [Compound 31]	–	<5	<5	<5	<5	<5	107 °C
COc1cc(OC)cc(N(CC2CC2)c2ccc3ncc(-c4cn(CCN5CCOCC5)nn4)nc3c2)c1 [Compound 24]	<5	<5	<5	<5	5.59	~5.7	128 °C
COc1cc(OC)cc(N(CC2CC2)c2ccc3ncc(-c4ocnc4C)nc3c2)c1 [Compound 104]	–	<5	–	<5	–	<5	141 °C
COc1cc(OC)cc(N(CC2CC2)c2ccc3ncc(-c4nccs4)nc3c2)c1 [Compound 97]	–	<5	<5	<5	<5	<5	148 °C
COc1cc(OC)cc(N(CC2CC2)c2ccc3ncc(-c4cn(CCO)nn4)nc3c2)c1 [Compound 40]	<5	<5	<5	<5	5.04	~5.15	178 °C and 177 °C
COc1cc(OC)cc(N(CC2CC2)c2ccc3ncc(-c4nnn(C)n4)nc3c2)c1 [Compound 82]	<5	<5	<5	<5	5.18	<5	143 °C
COc1cc(OC)cc(N(CCO)c2ccc3ncc(-c4cccnc4)nc3c2)c1 [Compound 9]	–	5.12	–	<5	–	6.59	151 °C
COc1cc(OC)cc(N(CC2CC2)c2ccc3ncc(-c4cnco4)nc3c2)c1 [Compound 55]	<5	<5	<5	<5	5.65	~5.25	152 °C
CNC(=O)c1cc(-c2cnc3ccc(N(CCNC(C)C)c4cc(OC)cc(OC)c4)cc3n2)ccn1 [Compound 14]	–	5.35	–	5.02	–	7.03	68 °C
